These are literature values, as cited in US20150065545A1, “Transdermal Delivery of Anastrozole for Systemic Effect” (Professional Compounding Centers of America, priority 2013, published 2015).

The conditions of series [1]: men with hormone disorders (elevated estradiol) prescribed anastrozole.
For series [2] the following is noted: after the use of anastrozole for about 7 days.

With `CC(C)(C#N)c1cc(Cn2cncn2)cc(C(C)(C)C#N)c1` [anastrozole, 1,3-benzenediacetonitrile, a, a, a′, a′-tetramethyl-5-(1H-1,2,4-triazol-1-ylmethyl)], the estradiol levels result in series [1] is “significant decrease”. The “increase of natural testosterone levels” value in series [2] is recorded as at most 60%.
